Like-named read-outs stand apart in the source and are kept apart here.
Columns and labels:
Type in all cases: physicochemical
[1] = Slurry experiments (form by XRPD after slurrying in a solvent); conditions: Form A in dioxane slurry
Description: 50 to 60 mg of Form A of Compound I was weighed out into 2 dram amber vials and the material was slurried in 2 mL of a solvent. The slurry experiments were carried out at either ambient temperature or at 40° C. Samples were obtained from slurries after one day, one week, and two weeks. Tables 15 and 16 detail the results of the slurry experiments.

[2] = Humidity chamber study of Form A (XRPD, Karl Fischer); conditions: ambient temperature and 0% RH for one week
Excerpt: A sample of Form A was exposed to ambient temperature and 0% RH for one week.

[3] = Physical characterization of the polymorphs and salt (XRPD, DSC, TGA, 1H-NMR, KF, moisture sorption): stability assessment; conditions: solid form
Description: Described herein are Form A, Form B, Form C, Form D, Form E, Form F and Form G of Compound I. Various tests were performed in order to physically characterize the polymorphs of Compound I, including X-ray powder diffraction (XRPD), differential scanning calorimetry (DSC), thermogravimetric analysis (TGA), solution proton nuclear magnetic resonance (^1H-NMR), and moisture sorption and desorption analysis (M S/Des). Detailed experimental conditions for each of the analytical techniques are described in the Examples section. […] A summary of these experiments and the results are presented below and in Table 12.

[4] = Moisture-sorption analysis (gravimetric adsorption/desorption, 25° C.)
Description: Further, the material gained enough water to form the dihydrate in approximately 45 minutes at 30% RH during adsorption and lost enough water to form the anhydrate at 15% RH during desorption in less than 60 minutes. […] The sample was further allowed to equilibrate at ambient laboratory conditions overnight and reanalyzed by XRPD. […] The moisture sorption experiment of Form C of Compound I provides a curve similar to the Form A curve (FIG. 11). […] Further, the material gained enough water to form the dihydrate in less than 60 minutes at 30% RH during adsorption and lost enough water to form the anhydrate at 15% RH during desorption in approximately 80 minutes. […] Moisture-sorption experiments were carried out on all samples by first drying the sample at 0% RH and 25° C. until an equilibrium weight was reached or for a maximum of four hours. The sample was then subjected to an isothermal (25° C.) adsorption scan from 10 to 90% RH in steps of 10%. Samples were then allowed to equilibrate to an asymptotic weight at each point for a maximum of four hours. Following adsorption, a desorption scan from 85 to 0% RH (at 25° C.) was run in steps of −10% again allowing a maximum of four hours for equilibration to an asymptotic weight. Samples were dried for one hour at 80° C. and the resulting solids analyzed by XRPD.

[5] = Solubility study of Form A in de-ionized water and 20 mM phosphate buffer at pH 3.2 (HPLC, XRPD of solids); conditions: for solubility at 1 week: ambient temperature, read-out: Solubility mg/mL (1 week); for solubility at 1 day: read-out: Solubility mg/mL (1 day)
Description: Solubility was determined for Form A of Compound I by suspending the material in de-ionized water and 20 mM phosphate buffer at pH 3.2 and ambient temperature. Approximately 40 mg of Form A of Compound I was charged to 2-dram amber vials equipped with magnetic stir bars, followed by the addition of DI water or phosphate buffer (2.0 mL) in one portion. The samples were allowed to equilibrate with stirring for 16 h, followed by centrifugation. An aliquot of the supernatant liquid was analyzed by HPLC, and the solids isolated by filtration and dried under vacuum at ambient temperature for analysis by XRPD. Samples were allowed to stir for an additional 6 days and concentration determined by HPLC.

[6] = DSC heat-cool experiments with isothermal holds to isolate high-melt forms
Description: Differential scanning calorimetry (DSC) analyses were carried out on samples weighed in an aluminum pan, covered with a pierced lid, and then crimped. Analysis conditions were 30° C. to 300-350° C. ramped at 10° C./min. Samples were subjected to heat-cool-heat experiments to determine if a unique form or interconversion could be observed. Compound I was prepared by thoroughly mixing Form A lots with stirring by spatula and tumbling the powders for several minutes in a scintillation vial. Experiments were setup as described in Tables 17 and 18 with isothermal holds for five minutes at temperatures slightly below/above the observed transitions to encourage conversion/ripening. Similarly, controlled cooling profiles (−5° C./min) were used to help promote crystal growth as opposed to quench cooling which may result in amorphous or kinetically favored forms instead of the stable form.

[7] = solids isolated from DI water suspension
[8] = solids isolated from phosphate buffer suspension, pH 3.2
[9] = 30-280° C. @ 10° C./min, hold 280° C. for 5 min, 280-30° C. @ -5° C./min
[10] = 30-290° C. @ 10° C./min, hold 290° C. for 5 min, 290-30° C. @ -5° C./min

XRPD pattern of dioxane slurry [1]: mixture of Form A and Form D
Karl Fischer (KF) analysis results before and after the one week equilibration [2]: comparable
XRPD after one week in humidity chamber [2]: consistent with Form A
stability (based on the available characterization data) [3]: stable at ambient conditions
XRPD analysis of the solid following the desorption scan [4]: consistent with Form C
time to lose enough water to form the anhydrate ([4]; at 15% RH during desorption): less than 60 minutes
time to gain enough water to form the dihydrate ([4]; at 30% RH during adsorption): approximately 45 minutes
hydration state in the moisture sorption experiment ([4]; during both adsorption and desorption, 25° C.): stable dihydrate above 20% RH
XRPD after equilibration at ambient laboratory conditions overnight ([4]; sample after desorption scan): re-converted to Form A
pH, 1 week ([5]; DI water suspension, pH (initial) 6.9): 7.2
pH, 1 week ([5]; Phosphate buffer suspension, pH (initial) 3.2): 3.4
solubility at 1 week ([5]; aqueous buffer, thermodynamic from solid, Phosphate buffer (20 mM), pH (initial) 3.2, pH 3.4 at 1 week): < 0.1 mg/mL
solubility at 1 day ([5]; de-ionized water, pH 6.9, thermodynamic from solid, DI water, pH (initial) 6.9, ambient temperature): < 0.1 mg/mL
solubility at 1 week ([5]; de-ionized water, thermodynamic from solid, DI water, pH (initial) 6.9, pH 7.2 at 1 week): < 0.1 mg/mL
solubility at 1 day ([5]; pH 3.2, aqueous buffer, thermodynamic from solid, Phosphate buffer (20 mM), pH (initial) 3.2, ambient temperature): < 0.1 mg/mL
XRPD (1 week) [5, 7]: Form A
XRPD (1 day) [5, 7]: Form A
XRPD (1 week) [5, 8]: Form A
XRPD (1 day) [5, 8]: Form A
1H NMR (degradation) [6, 9]: No degradation
XRPD [6, 9]: Form F
1H NMR (degradation) [6, 10]: No degradation
XRPD [6, 10]: Form G
Compound: CCS(=O)(=O)c1cccc(-c2cc(C(=O)NC3CCN(C)CC3)c(C)c3[nH]c4ncc(C)cc4c23)c1 [Compound I Form A, 5-(3-(ethylsulfonyl)phenyl)-3,8-dimethyl-N-(1-methylpiperidin-4-yl)-9H-pyrido[2,3-b]indole-7-carboxamide]
